The target in assay [1] is T1, phospholamban inhibition of SR Ca2+-ATPase in cardiac muscle SR vesicles (Cavia porcellus, UniProt A0A286XLC6).
T1 construct: Their hearts or the psoas muscles were excised; from tissue; host or cells: guinea pig heart (ventricular myocardium), SR vesicles
T1 sequence (A0A286XLC6 1-52): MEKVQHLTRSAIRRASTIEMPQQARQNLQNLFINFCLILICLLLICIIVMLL
Put plainly: Calcium uptake assay (fluo-3), cardiac SR vesicles. In kind it is biochemical, guinea pig. Particulars: for activation at 100 µM: compound 100 μM. On the procedure:
(§1) Preparation of the SR-vesicles
(§2) Guinea pigs (10-12) were decapited. Their hearts or the psoas muscles were excised, washed in ice-cold 0.9% NaCl and cut into pieces in a buffer containing 20 mM Tris-maleate, 0.3 M sucrose, pH 7.0. Thereafter tissue pieces were homogenized with Polytron and further with Potter (10 strokes). The homogenate was centrifugated at 1000 g for 15 min at 4° C. The supernatant was collected and the pellet was resuspended into 5 ml of the buffer (20 mM Tris-maleate, 0.3 M sucrose, pH 7.0) and recentrifugated at 1000 g for 10 min at 4° C. The obtained supernatant was combined with the earlier collected supernatant and centrifugated once again at 10 000 g for 20 min at 4° C. The final supernatant was filtered into a bottle equipped with a magnetic stirrer. KCl was added to the filtered supernatant to achieve the final concentration of 0.6 M (at 4° C.). The obtained solution was centrifugated at 100 000 g for 60 min at 4° C. The pellet was suspended in 5 ml of the buffer containing 20 mM Tris-maleate, 0.3 M sucrose, pH 7.0 and centrifugated at 100 000 g for 60 min at 4° C. The obtained pellet was suspended in 5 ml of buffer containing 20 mM Tris-maleate, 0.3 M sucrose, 0.1 M KCl, pH 7.0 and stored at -80° C. until use. The protein concentration was also measured in order to standardise the separately prepared vesicle preparations.
(§3) In the calcium uptake assay, the fluorescent indicator, fluo-3 was used to detect the decrease of the extravesicular Ca^2+ -concentration, when the SR Ca^2+ ATPase was transferring Ca^2+ from the extravesicular space into the SR-vesicles.
(§4) The SR-vesicles obtained above (50 μg protein/ml) were pre-incubated with or without the test compound at 37° C. for 5 min in the assay buffer containing 40 mM imidazole, 95 mM KCl, 5 mM NaN3, 5 mM MgCl2, 0.5 mM EGTA, 5 mM potassium oxalate, 2 μM ruthenium red, 5 μM fluo-3, pH 7.0. The free calcium was adjusted to 0.1 μM or to 0.04 μM by CaCl2. The reaction was initiated by adding ATP (5 mM). The final reaction volume was 1.5 ml. The fluorescence of reaction mixture was measured for 3 min by using the excitation and emission wavelengths of 510 nm and 530 nm, respectively.
(§5) The experiments were carried out at 0.1 μM and 0.04 μM free calcium concentrations, respectively.

Assay [2] concerns the target T2, SR Ca2+-ATPase in fast skeletal muscle SR vesicles (Cavia porcellus, UniProt H0UXI0).
T2 construct: Their hearts or the psoas muscles were excised; from tissue; host or cells: guinea pig psoas muscle, SR vesicles
Put plainly: Calcium uptake assay (fluo-3), fast skeletal muscle (psoas m.) SR vesicles, which lack phospholamban. The assay is classed as biochemical, guinea pig. The settings on record: for activation at 100 µM: compound 100 μM. On the procedure: as §1, §2, §3, §4, §5

Assay [3] deals with isolated guinea-pig Langendorff heart. Put plainly: Development of stunned myocardium in isolated Langendorff heart (ischemia-reperfusion). The settings on record: 10 μM in perfusion buffer; three 8 min global ischemia periods each followed by reperfusion; FIG. 3B. Here is the method:
Guinea-pigs of either sex weighing 300-400 g were used in the study. After the guinea-pig was sacrificed by a blow on the skull and decapitated the heart was rapidly excised. The heart was then rinsed in oxygenated perfusion buffer. A cannula was inserted into the aorta and secured with a ligature. Retrograde perfusion began as soon as the heart was placed in a thermostatically controlled moist chamber of the Langendorff apparatus. Modified Tyrode solution (37° C.), equilibrated in a thermostatically controlled bulb oxygenator with carbogen (95% O2 and 5% CO2) was used as a perfusion buffer. The composition of the Tyrode solution was (in mM): NaCl 135; MgCl2 ×6H2 O 1; KCl 5; CaCl2 ×2H2 O 2; NaHCO3 15; Na2 HPO4 ×2H2 O 1; glucose 10; pH 7.3-7.4. The experiments were carried out under constant pressure condition (50 mmHg). After a short prestabilization (10 min) a latex balloon attached through the stainless-steel cannula to a pressure transducer was carefully placed into the left ventricle through the left pulmonary vein and the left atrium. The latex balloon, the cannula and the chamber of the pressure transducer were filled with ethylene glycol/water (1:1) mixture avoiding any air-bubble. The isovolumetric left ventricular pressure was recorded through the pressure transducer. […]

The target in assay [4] is T3, PLB[1-36 a.a.] (36 amino acid N-terminal fragment of human phospholamban) (Homo sapiens, UniProt P26678).
T3 construct: the pSer16/pThr17 doubly phosphorylated peptide was compared
T3 sequence (P26678 1-36): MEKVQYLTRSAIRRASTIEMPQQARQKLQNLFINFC
The assay can be described thus: Circular dichroism (CD) spectroscopy, binding to cytosolic part of phospholamban. Particulars: FIG. 2. Here is the method: (§6) Both the 36 amino acid N-terminal fragment of human phospholamban (PLB [1-36 a.a.]) and the 36 amino acid N-terminal fragment of double phosphorylated human phospholamban (PLB [1-36 a.a.](Ser16PO3 -, Thr17PO3 -)) were obtained by peptide synthesis. The peptides were purified by reverse phase HPLC, analysed for homogenity by mass spectrometry and were found pure at 97%. The peptides were lyophilized and then resuspended in water at the final concentration of 0.1 mM, for CD analysis. The pH of both solutions was between 3 and 4 and was not further adjusted. Compound of Example 1c was solved in water at a final concentration of 0.1 mM. The pH was adjusted at 7.2 by adding 1 N NaOH.
(§7) Circular dichroism spectra were acquired at 24° C. on samples of 100 μl. The spectra were recorded on a Jasco J-720 spectropolarimeter using a 1 mm path-length quartz cuvette. The band width was 1 nm, the sensitivity 20 mdeg, the step resolution 0.5 nm, the response time 0.5 sec, and the scan speed 20 nm/min (from 250 to 190 nm). The spectra were expressed in [θ]×10^-3 ×degrees×cm^2 ×dmol^-1.
For orientation: CD spectra are sensitive to the conformation of chiral molecules.

The test system of assay [5] is PLB[1-36 a.a.](Ser16PO3-, Thr17PO3-). The assay can be described thus: Circular dichroism (CD) spectroscopy, binding to double phosphorylated phospholamban fragment. The arrangement: species or system human. Particulars: double phosphorylated peptide; FIG. 2. Here is the method: as §6, §7
Where [6] appears, read: 0.05 h, 0.1 μM free calcium, read-out: The stimulation (%) of Ca2+ uptake, A (ventricular myocardium vesicles).
[7] abbreviates: 0.05 h, 0.04 μM free calcium, read-out: The stimulation (%) of Ca2+ uptake, B (fast skeletal muscle vesicles).

“Also recorded” adds a separate entry of the source.

We go through 6 molecules from patent US5968959A, “Method for the prevention and treatment of stunned myocardium” (Orion Corporation, priority 1998, dated 1999).

T2 sequence (H0UXI0 entry or part of it limits assumed): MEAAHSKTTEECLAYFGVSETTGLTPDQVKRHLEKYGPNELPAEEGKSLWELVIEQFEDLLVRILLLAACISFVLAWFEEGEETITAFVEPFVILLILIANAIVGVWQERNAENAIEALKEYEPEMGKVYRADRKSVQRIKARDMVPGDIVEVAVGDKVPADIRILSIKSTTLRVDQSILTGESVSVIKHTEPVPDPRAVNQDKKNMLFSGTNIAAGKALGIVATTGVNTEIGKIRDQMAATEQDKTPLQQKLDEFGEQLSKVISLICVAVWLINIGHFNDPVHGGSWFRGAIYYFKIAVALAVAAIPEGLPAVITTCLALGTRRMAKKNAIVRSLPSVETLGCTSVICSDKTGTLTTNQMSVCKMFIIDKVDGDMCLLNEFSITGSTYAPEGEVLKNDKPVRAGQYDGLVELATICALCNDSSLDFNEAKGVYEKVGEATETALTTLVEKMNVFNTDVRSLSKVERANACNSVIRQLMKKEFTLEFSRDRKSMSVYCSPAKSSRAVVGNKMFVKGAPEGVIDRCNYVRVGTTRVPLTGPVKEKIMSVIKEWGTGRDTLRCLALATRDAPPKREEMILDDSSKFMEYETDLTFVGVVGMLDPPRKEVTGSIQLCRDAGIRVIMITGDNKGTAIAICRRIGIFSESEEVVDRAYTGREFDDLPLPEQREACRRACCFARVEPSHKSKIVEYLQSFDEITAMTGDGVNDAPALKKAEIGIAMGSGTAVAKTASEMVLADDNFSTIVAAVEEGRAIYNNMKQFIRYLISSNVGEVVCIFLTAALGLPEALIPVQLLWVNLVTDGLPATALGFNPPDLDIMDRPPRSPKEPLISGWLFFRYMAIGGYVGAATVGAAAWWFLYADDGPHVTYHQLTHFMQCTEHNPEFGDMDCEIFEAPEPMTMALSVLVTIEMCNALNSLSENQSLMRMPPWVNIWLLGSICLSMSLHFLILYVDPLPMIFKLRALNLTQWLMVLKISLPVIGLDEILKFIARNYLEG

In the case of `Cc1c(Cc2ccccc2)c(=O)n(Cc2ccccc2)c2cc(OCc3nnn[nH]3)cc(OCc3nnn[nH]3)c12` [Example 8g, 5,7-Bis[(1H-tetrazol-5-yl)methoxy]-1,3-dibenzyl-4-methyl-2(1H)-quinolinone], the “Effect on the Ca2+ uptake rate into the cardiac muscle SR vesicles” value in assay [1] (0.1, 1.0 and 10 μM, FIG. 1) is on record as “accelerated the calcium uptake”. The “Effect on the calcium uptake into the SR vesicle prepared from the fast skeletal muscle” value in assay [2] (0.1-10 μM) is given as “did not change the calcium uptake”. Further, the activation at 10 µM in assay [2] (0.05 h, compound 10 μM, 0.04 μM free calcium, read-out: The stimulation (%) of Ca2+ uptake, B (fast skeletal muscle vesicles)) came to 0%. Further, the “Development of stunned myocardium (left ventricular systolic pressure)” value in assay [3] is recorded as “complete inhibition of the development of stunned myocardium; also recorded: completely inhibited the development of stunned myocardium”.

Take `Cc1c(CCc2ccccc2)c(=O)oc2cc(OCc3nnn[nH]3)cc(OCc3nnn[nH]3)c12` [Example 7c, 5,7-Bis[(1H-tetrazol-5-yl)methoxy]-4-methyl-3-(2-phenylethyl)-2H-1benzopyran-2-one]: the activation at 100 µM in assay [1] (setting [6]) was 5%; in assay [2] (setting [7]), -17%.

For `O=c1oc2cc(OCc3nnn[nH]3)cc(OCc3nnn[nH]3)c2c2c1C(c1ccccc1)CCC2` (centres unmarked) [Example 2c, 7,8,9,10-Tetrahydro-1,3-bis[(1H -tetrazol-5-yl)methoxy]-7-phenyl-6H-dibenzo[b,d]pyran-6-one], the activation at 100 µM in assay [2] (setting [7]) is -1%.

Consider `Cc1c(Cc2ccccc2)c(=O)oc2cc(OCc3noc(=O)[nH]3)cc(OCc3noc(=O)[nH]3)c12` [Example 3c, 3-Benzyl-5,7-bis[(2,5-dihydro-5-oxo-4H -1,2,4-oxadiazol-3-yl)-methoxy]-4-methyl-2H -1-benzopyran-2-one], for which the activation at 20 µM in assay [2] (0.05 h, compound 20 μM, 0.04 μM free calcium, read-out: The stimulation (%) of Ca2+ uptake, B (fast skeletal muscle vesicles)) was 0%.

As for `Cc1c(Cc2ccccc2)c(=O)n(Cc2ccccc2)c2cc(OCC(=O)NO)cc(OCC(=O)NO)c12` [Example 23, 5,7-Bis(hydroxyaminocarbonylmethoxy)-1,3-dibenzyl-4-methyl-2(1H)-quinolinone], the activation at 5 µM in assay [1] (0.05 h, compound 5 μM, 0.1 μM free calcium, read-out: The stimulation (%) of Ca2+ uptake, A (ventricular myocardium vesicles)) was 20%.

As for `Cc1c(Cc2ccccc2)c(=O)oc2cc(OCc3nnn[nH]3)cc(OCc3nnn[nH]3)c12` [Example 1c, 3-Benzyl-5,7-bis[(1H -tetrazol-5-yl)methoxy]-4-methyl-2H -1-benzopyran-2-one], the “Change in CD spectrum (α-helical contribution) of PLB[1-36 a.a.] after addition of compound” value in assay [4] (50 μM each, water, room temperature) was “marked increase of α-helical contribution”. Further, the “Interaction (complex formation) with PLB[1-36 a.a.] by CD” value in assay [4] (unphosphorylated peptide) is recorded as “forms a complex with PLB; also recorded: interacts with the cytosolic part of phospholamban”. Besides, the activation at 100 µM in assay [1] (setting [6]) is 42%; in assay [2] (setting [7]), -6%. Besides, the “Interaction with phosphorylated PLB[1-36 a.a.](Ser16PO3-, Thr17PO3-) by CD” value in assay [5] is listed as “does not interact or interacts weakly”.
